The values below come from US4049696A, “3-((4-(2,2-Dichloro-1,1-difluoroethoxy)phenyl)sulfonyl)-2-propenenitrile” (The Dow Chemical Company, priority 1977, dated 1977).

Common to all, as to assay type: cell-based
For one test, the system named is P. chrysogenum. Kind of test: in vitro agar Petri dish dilution test, P. chrysogenum. The note with it: Penicillium chrysogenum, 100% growth inhibition. From the text: (§1) The compound has antimicrobial utility.
In a further test the test system is P. pullulans. Kind of test: in vitro agar Petri dish dilution test, P. pullulans. As to conditions: 100% growth inhibition.
Excerpt: as §1

The next test concerns S. aureus. Briefly: in vitro agar Petri dish dilution test, S. aureus. As to conditions: Staphylococcus aureus, 100% growth inhibition.
Excerpt: as §1

A further test has as its system C. albicans NIH. Briefly: in vitro agar Petri dish dilution test, C. albicans NIH. The note with it: Candida albicans, 100% growth inhibition.
Excerpt: as §1

Another test has as its system A. fumigatus. Kind of test: in vitro agar Petri dish dilution test, A. fumigatus. The note with it: Aspergillus fumigatus, 100% growth inhibition.
Excerpt: as §1

Test [1] relates to Trichoderm Sp. Madison P-42. Briefly: in vitro agar Petri dish dilution test, Trichoderm Sp. Madison P-42. As to conditions: 100% growth inhibition.
Excerpt: as §1

A further test relates to T. mentagrophytes. Briefly: in vitro agar Petri dish dilution test, T. mentagrophytes. The note with it: Trichophyton mentagrophytes, 100% growth inhibition.
Excerpt: as §1

The test system of a further test is E. coli ATCC 11229. Briefly: in vitro agar Petri dish dilution test, E. coli ATCC 11229. The note with it: Escherichia coli, ATCC11229, 100% growth inhibition.
Excerpt: as §1

For the next test, the system named is P. aeruginosa. Kind of test: in vitro agar Petri dish dilution test, P. aeruginosa. As to conditions: Pseudomonas aeruginosa, 100% growth inhibition.
Excerpt: as §1

For test [2], the system named is K. pneumoniae M-1 Midland Hospital. Briefly: in vitro agar Petri dish dilution test, K. pneumoniae M-1 Midland Hospital. The note with it: Klebsiella pneumoniae, 100% growth inhibition.
Excerpt: as §1

The next test has as its system Torulopsis Species. Kind of test: in vitro agar Petri dish dilution test, Torulopsis Species. As to conditions: 100% growth inhibition.
Excerpt: as §1

In the next test the test system is B. subtilis. Briefly: in vitro agar Petri dish dilution test, B. subtilis. The note with it: Bacillus subtilis, 100% growth inhibition.
Excerpt: as §1

A further test concerns A. niger. Briefly: in vitro agar Petri dish dilution test, A. niger. The note with it: Aspergillus niger, 100% growth inhibition.
Excerpt: as §1

Another test concerns C. pelliculosa. Briefly: in vitro agar Petri dish dilution test, C. pelliculosa. The note with it: Hansenula anomala, 100% growth inhibition.
Excerpt: as §1

In another test the test system is C. albicans. Briefly: in vitro agar Petri dish dilution test, C. albicans. As to conditions: Candida albicans, 100% growth inhibition.
Excerpt: as §1

For another test, the system named is S. marcescens NIH. Kind of test: in vitro agar Petri dish dilution test, S. marcescens NIH. The note with it: Serratia marcescens, 100% growth inhibition.
Excerpt: as §1

Converted amounts (≈) assume the structure as drawn.

Regarding `N#CC=CS(=O)(=O)c1ccc(OC(F)(F)C(Cl)Cl)cc1` [3-((4-(2,2-Dichloro-1,1-difluoroethoxy)phenyl)sulfonyl)-2-propenenitrile], the MIC is 10 µg/mL (≈ 29.2 µM) with P. chrysogenum; 50 µg/mL (≈ 146 µM) in the test on P. pullulans; 5 µg/mL (≈ 14.6 µM) against S. aureus; 50 µg/mL (≈ 146 µM) with C. albicans NIH; 50 µg/mL (≈ 146 µM) against A. fumigatus; 100 µg/mL (≈ 292 µM) in [1]. Besides, the MIC with T. mentagrophytes amounted to 10 µg/mL (≈ 29.2 µM); in the test on E. coli ATCC 11229, 50 µg/mL (≈ 146 µM); in the test with P. aeruginosa it was 100 µg/mL (≈ 292 µM); in test [2] it was 100 µg/mL (≈ 292 µM); against Torulopsis Species, 50 µg/mL (≈ 146 µM); with B. subtilis, 1 µg/mL (≈ 2.92 µM). Also, the MIC in the test with A. niger turned out to be 10 µg/mL (≈ 29.2 µM); with C. pelliculosa, 10 µg/mL (≈ 29.2 µM); with C. albicans, 50 µg/mL (≈ 146 µM); in the test with S. marcescens NIH, 50 µg/mL (≈ 146 µM).

What is called MIC is the lowest concentration found to suppress growth.
